Laboratory results as given in patent publication US20230172961A1 (priority 2020, published 2023).

How the values were obtained:
[1] = biological target: SARS-CoV RdRp (nsp12, nsp7 and nsp8) (Severe acute respiratory syndrome coronavirus, UniProt P0C6X7); assay type: biochemical
[2] = biological target: T1, SARS-CoV-2 RdRp (nsp12, nsp7 and nsp8) (Severe acute respiratory syndrome coronavirus 2, UniProt P0DTD1); conditions: kinetic studies of Gordon et al 2020a, b; RDV-TP with MERS-CoV and SARS-CoV-2 RdRps; cited from earlier work
[3] = tested on: Thermo Sequenase; assay: DNA polymerase extension reaction, MALDI-TOF MS, high fidelity polymerase; conditions: 10 µM nucleotide, DNA template and primer
[4] = biological target: T1, SARS-CoV-2 RdRp (nsp12, nsp7 and nsp8); assay type: biochemical
[5] = tested on: Therminator IX; conditions: 10 µM nucleotide, DNA template and primer, MALDI-TOF MS
[6] = biological target: Therminator II (Thermococcus sp., UniProt Q56366, A485L/D141A/E143A/Y409V); conditions: 10 µM nucleotide, DNA template and primer, MALDI-TOF MS
Chain of Therminator II (Q56366 whole entry D141A/E143A/Y409V/A485L): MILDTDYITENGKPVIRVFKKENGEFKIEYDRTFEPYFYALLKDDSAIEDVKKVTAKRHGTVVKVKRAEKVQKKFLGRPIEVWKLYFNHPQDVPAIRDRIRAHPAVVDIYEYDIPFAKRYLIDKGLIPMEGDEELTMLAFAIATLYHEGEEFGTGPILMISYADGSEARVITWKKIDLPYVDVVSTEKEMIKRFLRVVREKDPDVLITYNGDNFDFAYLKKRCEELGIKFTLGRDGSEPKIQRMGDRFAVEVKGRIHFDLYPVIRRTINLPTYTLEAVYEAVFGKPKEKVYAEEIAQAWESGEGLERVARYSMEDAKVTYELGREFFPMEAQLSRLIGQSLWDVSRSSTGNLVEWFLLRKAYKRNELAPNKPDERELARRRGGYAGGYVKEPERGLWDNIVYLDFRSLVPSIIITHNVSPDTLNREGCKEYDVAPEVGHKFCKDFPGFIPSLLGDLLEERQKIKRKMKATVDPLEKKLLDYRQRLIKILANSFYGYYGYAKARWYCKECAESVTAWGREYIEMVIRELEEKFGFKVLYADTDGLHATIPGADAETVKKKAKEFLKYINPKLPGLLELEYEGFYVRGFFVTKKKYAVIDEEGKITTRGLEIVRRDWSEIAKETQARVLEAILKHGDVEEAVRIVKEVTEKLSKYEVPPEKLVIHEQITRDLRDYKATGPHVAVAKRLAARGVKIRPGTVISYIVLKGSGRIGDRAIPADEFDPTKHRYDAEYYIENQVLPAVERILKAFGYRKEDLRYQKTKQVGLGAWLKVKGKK

[7] = biological target: SARS-CoV-2 exonuclease complex (nsp14/nsp10) (Severe acute respiratory syndrome coronavirus 2, UniProt P0DTD1); assay: Inhibition of SARS-CoV-2 exonuclease, MALDI-TOF MS; assay type: biochemical; conditions: 30 nM nsp14/nsp10, 37° C., 15 min
[8] = tested on: SARS-CoV-2 in Calu-3 lung cells; conditions: screen of 1200 drugs; cited from earlier work
[9] = biological target: SARS-CoV-2 RdRp (Severe acute respiratory syndrome coronavirus 2, UniProt P0DTD1); conditions: biochemical assays; cited from earlier work
[10] = tested on: SARS-CoV-2 infection of human brain organoids; conditions: cited from earlier work
[11] = tested on: SARS-CoV-2 in Vero and pulmonary epithelial cell culture; conditions: in the presence or absence of Ritonavir; cited from earlier work
[12] = tested on: SARS-CoV-2; conditions: hamsters; cited from earlier work

Question: Which results are given for 2′-fluoro-2′-methyl-UTP [2′-F,Me-UTP]?
Answer: termination of the polymerase reaction [1]: permanent terminators; incorporation efficiency relative to the natural nucleotide [2]: lower incorporation efficiency than the natural nucleotide; incorporation and block of further nucleotide incorporation [3]: no incorporation; incorporation efficiency [4]: efficient substrates of the RdRp; termination of the polymerase reaction [4]: single nucleotide (2′-F,Me-UMP) primer extension product; incorporation and block of further nucleotide incorporation [5]: able to be incorporated and block further nucleotide incorporation; incorporation and block of further nucleotide incorporation [6]: able to be incorporated and block further nucleotide incorporation

Question: What does the source list for `COC[C@H]1C[C@@H](c2nc(-c3ccc4c(c3)COc3cc5c(ccc6nc([C@@H]7CC[C@H](C)N7C(=O)[C@@H](NC(=O)OC)C(C)C)[nH]c65)cc3-4)c[nH]2)N(C(=O)[C@H](NC(=O)OC)c2ccccc2)C1` [Velpatasvir]?
Answer: inhibition of exonuclease activity ([7]; 50 µM inhibitor): shows inhibition of the exonuclease activity; inhibition of exonuclease activity ([7]; 150 µM inhibitor): increased inhibition of exonuclease activity; synergism with Remdesivir in inhibiting viral production [8]: strongest effects

Question: Which “potency relative to Remdesivir” value [9] does the source give for `Cc1ccc(C(=O)Nc2ccc(S(=O)(=O)O)c3cc(S(=O)(=O)O)cc(S(=O)(=O)O)c23)cc1NC(=O)c1cccc(NC(=O)Nc2cccc(C(=O)Nc3cc(C(=O)Nc4ccc(S(=O)(=O)O)c5cc(S(=O)(=O)O)cc(S(=O)(=O)O)c45)ccc3C)c2)c1` [Suramin] here?
Answer: The value was 20 ×.

Question: For `CC(C)OC(=O)[C@H](C)N[P@](=O)(OC[C@H]1O[C@@H](n2ccc(=O)[nH]c2=O)[C@](C)(F)[C@@H]1O)Oc1ccccc1` [Sofosbuvir], which “protection from SARS-CoV-2 infection” value [10] is on record?
Answer: The value was “protect human brain organoids from SARS-CoV-2 infection”.

Question: With `COC(=O)N[C@H](C(=O)N[C@@H](Cc1ccccc1)[C@@H](O)CN(Cc1ccc(-c2ccccn2)cc1)NC(=O)[C@@H](NC(=O)OC)C(C)(C)C)C(C)(C)C` [atazanavir] as the molecule, how does the “inhibition of viral production” value [11] read?
Answer: Its value is “inhibits viral production”.

Question: Which “viral loads in the respiratory tract” value [12] does the source give for `CNC(=C[N+](=O)[O-])NCCSCc1ccc(CN(C)C)o1.O=C([O-])CC(O)(CC(=O)[O-])C(=O)[O-].[Bi+3]` [Ranitidine bismuth citrate] here?
Answer: The value was “decrease viral loads in the respiratory tract of hamsters”.
